Assay results as given in patent publication US8962843B2, “1,3,4-oxadiazole and 1,3,4-thiadiazole beta-lactamase inhibitors” (priority 2012, dated 2015).
Where a name gives a salt, the structure may show the parent alone.

Key:
[1] = test system: bacterial strains that express the class D cephalosporinase OXA-15; test: Standard BLI potentiation MIC / synergy MIC assays, strains expressing OXA-15; assay type: cell-based, E. coli; conditions: in combination with a β-lactam; comparator Avibactam (CCC)
In short: (§1)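 Broth microdilution in cation-adjusted Mueller Hinton broth per CLSI M07-A9, ~10^5 CFU/mL, 18-20 h at 37 °C with aeration; engineered E. coli carrying β-lactamase plasmids kept on 25 μg/mL tetracycline. β-lactam MIC measured in 2-fold dilutions (128-0.13 μg/mL) with BLI fixed at 4 μg/mL; sMIC titrates BLI against a fixed β-lactam concentration. MIC = lowest concentration without visible turbidity.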

[2] = test system: bacterial strains that express KPC β-lactamases; test: Standard BLI potentiation MIC / synergy MIC assays, strains expressing KPC β-lactamases; assay type: cell-based; conditions: in combination with a β-lactam; comparator Avibactam
In short: as §1

SMILES: NC1CCN(Cc2nnc([C@@H]3CC[C@@H]4CN3C(=O)N4OS(=O)(=O)O)o2)CC1 [Compound 774, (2S,5R)-2-(5-((4-aminopiperidin-1-yl)methyl)-1,3,4-oxadiazol-2-yl)-7-oxo-1,6-diazabicyclo[3.2.1]octan-6-yl hydrogen sulfate]
- activity against bacterial strains that express the class D cephalosporinase OXA-15, compared with Avibactam [1]: more active than Avibactam
- activity and/or spectrum of activity against bacterial strains that express KPC β-lactamases, compared with Avibactam [2]: more active than Avibactam for at least one, bacterial strain that expresses KPC β-lactamase and/or show a better spectrum of activity

SMILES: N[C@@H]1CN[C@H](c2nnc([C@@H]3CC[C@@H]4CN3C(=O)N4OS(=O)(=O)O)o2)C1 [Compound 760, (2S,5R)-2-(5-((2S,4S)-4-aminopyrrolidin-2-yl)-1,3,4-oxadiazol-2-yl)-7-oxo-1,6-diazabicyclo[3.2.1]octan-6-yl hydrogen sulfate]
- activity against bacterial strains that express the class D cephalosporinase OXA-15, compared with Avibactam [1]: more active than Avibactam
- activity and/or spectrum of activity against bacterial strains that express KPC β-lactamases, compared with Avibactam [2]: more active than Avibactam for at least one, bacterial strain that expresses KPC β-lactamase and/or show a better spectrum of activity

SMILES: N=C(N)NC1CC(Cc2nnc([C@@H]3CC[C@@H]4CN3C(=O)N4OS(=O)(=O)O)o2)C1 (stereo partly drawn) [Compound 752, (2S,5R)-2-(5-((3-guanidinocyclobutyl)methyl)-1,3,4-oxadiazol-2-yl)-7-oxo-1,6-diazabicyclo[3.2.1]octan-6-yl hydrogen sulfate]
- activity against bacterial strains that express the class D cephalosporinase OXA-15, compared with Avibactam [1]: more active than Avibactam
- activity and/or spectrum of activity against bacterial strains that express KPC β-lactamases, compared with Avibactam [2]: more active than Avibactam for at least one, bacterial strain that expresses KPC β-lactamase and/or show a better spectrum of activity

SMILES: N=C(N)NCCc1nnc([C@@H]2CC[C@@H]3CN2C(=O)N3OS(=O)(=O)O)o1 [Compound 705, (2S,5R)-2-(5-(2-guanidinoethyl)-1,3,4-oxadiazol-2-yl)-7-oxo-1,6-diazabicyclo[3.2.1]octan-6-yl hydrogen sulfate]
- activity against bacterial strains that express the class D cephalosporinase OXA-15, compared with Avibactam [1]: more active than Avibactam
- activity and/or spectrum of activity against bacterial strains that express KPC β-lactamases, compared with Avibactam [2]: more active than Avibactam for at least one, bacterial strain that expresses KPC β-lactamase and/or show a better spectrum of activity

SMILES: N=C1NCC(c2nnc([C@@H]3CC[C@@H]4CN3C(=O)N4OS(=O)(=O)O)o2)N1 (stereo partly drawn) [Compound 767, (2S,5R)-2-(5-(2-iminoimidazolidin-4-yl)-1,3,4-oxadiazol-2-yl)-7-oxo-1,6-diazabicyclo[3.2.1]octan-6-yl hydrogen sulfate]
- activity against bacterial strains that express the class D cephalosporinase OXA-15, compared with Avibactam [1]: more active than Avibactam
- activity and/or spectrum of activity against bacterial strains that express KPC β-lactamases, compared with Avibactam [2]: more active than Avibactam for at least one, bacterial strain that expresses KPC β-lactamase and/or show a better spectrum of activity

SMILES: N=C(N)N[C@H]1C[C@@H](c2nnc([C@@H]3CC[C@@H]4CN3C(=O)N4OS(=O)(=O)O)s2)C1 [Compound 784, (2S,5R)-2-(5-((1s,3R)-3-guanidinocyclobutyl)-1,3,4-thiadiazol-2-yl)-7-oxo-1,6-diazabicyclo[3.2.1]octan-6-yl hydrogen sulfate]
- activity against bacterial strains that express the class D cephalosporinase OXA-15, compared with Avibactam [1]: more active than Avibactam
- activity and/or spectrum of activity against bacterial strains that express KPC β-lactamases, compared with Avibactam [2]: more active than Avibactam for at least one, bacterial strain that expresses KPC β-lactamase and/or show a better spectrum of activity

SMILES: NCCCc1nnc([C@@H]2CC[C@@H]3CN2C(=O)N3OS(=O)(=O)O)o1 [Compound 720, (2S,5R)-2-(5-(3-aminopropyl)-1,3,4-oxadiazol-2-yl)-7-oxo-1,6-diazabicyclo[3.2.1]octan-6-yl hydrogen sulfate]
- activity against bacterial strains that express the class D cephalosporinase OXA-15, compared with Avibactam [1]: more active than Avibactam
- activity and/or spectrum of activity against bacterial strains that express KPC β-lactamases, compared with Avibactam [2]: more active than Avibactam for at least one, bacterial strain that expresses KPC β-lactamase and/or show a better spectrum of activity

SMILES: O=C1N2C[C@@H](CC[C@H]2c2nnc([C@@H]3CCNC3)o2)N1OS(=O)(=O)O [Compound 759, (2S,5R)-7-oxo-2-(5((R)-pyrrolidin-3-yl)-1,3,4-oxadiazol-2-yl)-1,6-diazabicyclo[3.2.1]octan-6-yl hydrogen sulfate]
- activity against bacterial strains that express the class D cephalosporinase OXA-15, compared with Avibactam [1]: more active than Avibactam
- activity and/or spectrum of activity against bacterial strains that express KPC β-lactamases, compared with Avibactam [2]: more active than Avibactam for at least one, bacterial strain that expresses KPC β-lactamase and/or show a better spectrum of activity

SMILES: C[n+]1ccc(-c2nnc([C@@H]3CC[C@@H]4CN3C(=O)N4OS(=O)(=O)[O-])o2)cc1 [Compound 782, (2S,5R)-2-(5-(1-methylpyridin-1-ium-4-yl)-1,3,4-oxadiazol-2-yl)-7-oxo-1,6-diazabicyclo[3.2.1]octan-6-yl sulfate]
- activity against bacterial strains that express the class D cephalosporinase OXA-15, compared with Avibactam [1]: more active than Avibactam
- activity and/or spectrum of activity against bacterial strains that express KPC β-lactamases, compared with Avibactam [2]: more active than Avibactam for at least one, bacterial strain that expresses KPC β-lactamase and/or show a better spectrum of activity

SMILES: N=C(N)Nc1nnc([C@@H]2CC[C@@H]3CN2C(=O)N3OS(=O)(=O)O)o1 [Compound 738, (2S,5R)-2-(5-guanidino-1,3,4-oxadiazol-2-yl)-7-oxo-1,6-diazabicyclo[3.2.1]octan-6-yl hydrogen sulfate]
- activity against bacterial strains that express the class D cephalosporinase OXA-15, compared with Avibactam [1]: more active than Avibactam
- activity and/or spectrum of activity against bacterial strains that express KPC β-lactamases, compared with Avibactam [2]: more active than Avibactam for at least one, bacterial strain that expresses KPC β-lactamase and/or show a better spectrum of activity

SMILES: NCCCCc1nnc([C@@H]2CC[C@@H]3CN2C(=O)N3OS(=O)(=O)O)o1 [Compound 735, (2S,5R)-2-(5-(4-aminobutyl)-1,3,4-oxadiazol-2-yl)-7-oxo-1,6-diazabicyclo[3.2.1]octan-6-yl hydrogen sulfate]
- activity against bacterial strains that express the class D cephalosporinase OXA-15, compared with Avibactam [1]: more active than Avibactam
- activity and/or spectrum of activity against bacterial strains that express KPC β-lactamases, compared with Avibactam [2]: more active than Avibactam for at least one, bacterial strain that expresses KPC β-lactamase and/or show a better spectrum of activity
